Experimental data from patent publication EP4663640A1 (Shanghai Institute of Materia Medica, Chinese Academy of …, priority 2023, dated 2024).

How the values were obtained:
[1] = system: primary cultured mouse hepatic stellate cells (HSC); assay: Inhibition of TGF-β-induced hepatic stellate cell activation (α-SMA labeling); format: cell-based; conditions: 1 µM compound, TGF-β 10 ng/mL, 24 hours; TGF-β alone 11.76 ± 1.47%, unstimulated 0.3 ± 0.04%; Mean ± SEM
Experimental: After primary cultured mouse hepatic stellate cells (HSC) were plated on 96-well black-bottom permeable plates for 24 hours, they were pre-incubated with 1 µM compound E21 and solvent control 0.1% DMSO for 1 hour, and then TGF-β was added to a final concentration of 10 ng/mL, and continued to be cultured in a CO2 incubator for 24 hours. Then the culture medium was aspirated, the plates were washed with 37 °C PBS solution for 3 times, and 4% paraformaldehyde solution was added for 30 minutes for fixation. Then 0.15% Triton X-100 solution was added for permeabilization for 10 minutes; then 5% BSA solution was added for blocking at room temperature for 1 hour; then anti-α-SMA solution (1:300) prepared with 5% BSA solution was added and incubated at 4 °C overnight; the next day, Alexa-488 anti-rabbit fluorescent secondary antibody (1:1000) prepared with 5% BSA solution was added and incubated at room temperature for 1 hour in the dark. […] After the end, the cells were washed 3 times with PBS solution and fluorescence photography was performed. The FITC filter was used to shoot green fluorescence, and the DAPI filter was used to shoot blue fluorescence. ImageJ software was used to count the total number of cells in each field of view, and the number of α-SMA positive cells was manually counted. […]

[2] = system: mice; assay: Marble burial test (antianxiety); format: in vivo; conditions: for number of buried marbles: test with reduced dosage (Figure 5)
Experimental: (§1) The drug to be tested was dissolved in DMSO: Tween 80: distilled water at a ratio of 2:2:96 (v/v/v), and then administered to mice by gavage at a volume of 10 mL/kg. […] The blank control group was only given 10 mL/kg of the above solvent.
The mouse marble burial test is a behavioral assay used for the screening of antianxiety drugs. It exploits the natural digging behavior of mice in environments such as burrows or escape tunnels and is sensitive to small changes in behavior caused by genetic manipulation, disease, or drug treatment.
A 5cm thick sawdust litter was laid in a 33 cm×24 cm×28 cm carton, and 4×5 black marbles (4 cm apart) with a total of 20 black marbles of 14mm in diameter were neatly placed on the litter. The mouse was put into the carton facing the corner for 30 minutes. After 30 minutes, the mouse was carefully taken out and the number of marbles buried by the mouse was counted. If more than 2/3 of the marble was buried, it was considered a whole marble. First, a blank experiment was conducted. Before the experiment, the mouse was taken to the experimental environment to adapt. After 1 hour, the experiment began. After the experiment, the mouse was returned to the cage and the number of marbles buried by the mouse was counted. On the second day, the mouse was taken to the experimental environment to adapt for 1 hour before the drug was administered. After the drug administration, the marble burying experiment was conducted for […]. After the experiment, the mouse was carefully taken out and returned to the cage to prevent the mouse from escaping violently and affecting the experimental results. After counting, the black marbles were taken out and wiped with alcohol, and the litter was turned over again to remove the smell of the previous mouse to prevent it from affecting the experiment of the next mouse. The marbles were neatly placed for the experiment of the next mouse.

[3] = system: mice; assay: Tail suspension test (antidepression); format: in vivo
Experimental: as §1
The mouse tail suspension test (TST) is a widely used experimental method to evaluate the effectiveness of antidepressants and other psychotropic drugs. The principle of the test is to suspend a mouse by its tail and observe its behavior. The mouse will initially struggle to escape, but when it realizes that escape is impossible, it will eventually stop struggling and enter a state of immobility that indicates despair. This immobility behavior is used to measure depression-like states, and the severity of the condition is assessed by recording the duration of immobility.
The same mouse was subjected to the tail suspension test immediately after the marble burying test. A tail suspension test box was built using a black frosted acrylic board, 55 cm high, 15 cm long, and 11.5 cm wide. The three sides and top of the box were frosted blackboards, and one side was used for video recording. The mouse tail was wrapped with yellow tape 2 cm away from the tip of the tail, and the mouse was hung upside down in the middle of the top acrylic board. The tip of the mouse tail was about 3 cm away from the acrylic board, and the body was suspended and could not touch the surrounding board wall. The test time for each mouse lasted for 6 minutes, and the immobility time of the mouse during this time was counted. After the experiment, the mouse was returned to the cage, and the inside of the box and the table were wiped with alcohol to remove the smell of the previous mouse to prevent affecting the next mouse experiment. The criteria for immobility in the tail suspension test: stop struggling, no flexion or twisting of the body, no swinging of the hind limbs, and slight swinging of the forelimbs and head were also counted as immobility time.

| SMILES | proportion of α-SMA-positive cells [1] [%] | number of buried marbles ([2]; oral 0.03 mg/kg) | number of buried marbles ([2]; oral 0.1 mg/kg, better than the same dose of HC-070) | number of marbles buried by mice ([2]; oral 0.1-1 mg/kg, before versus after administration (Figure 3)) | immobility time of mice in the tail suspension box ([3]; oral 0.03 mg/kg, test with reduced dosage (Figure 6), comparable to 0.1 mg/kg of HC-070) | immobility time of mice ([3]; oral 0.1, 0.3, 1 mg/kg, before versus after administration (Figure 4)) |
| --- | --- | --- | --- | --- | --- | --- |
| Cn1c(=O)n(CCCO)c(=O)c2c1nc(C1(F)CCC(C(F)(F)F)CC1)n2Cc1ccc(Cl)cc1 (stereo not drawn) [Example E21, 7-(4-chlorobenzyl)-8-(1-fluoro-4-(trifluoromethyl)cyclohexyl)-1-(3-hydroxypropyl)-3-methyl-3,7-dihydro-1H-purine-2,6-dione] | 5.20 ± 0.74 |  |  |  |  |  |
| Cn1c(=O)n(CCCO)c(=O)c2c1nc(C1(F)CCC(F)(F)CC1)n2Cc1ccc(F)c(Cl)c1 [Example E68, 7-(3-chloro-4-fluorobenzyl)-1-(3-hydroxypropyl)-3-methyl-8-(1,4,4-trifluorocyclohexyl)-3,7-dihydro-1H-purine-2,6-dione] |  | can reduce | more obvious | significantly reduced | significantly reduce | significantly reduced |
